Columns and labels:
[1] = bacteroides fragilis, 12 h, 2 µM
Description: The drug is tested on Bacteroides fragilis strain: DS-208 for biotransformation. The drug concentrations were measured before and after a 12-h incubation by liquid-chromatography-coupled mass spectrometry (LC–MS)

[2] = The drug is tested on Bacteroides sp. WH2 strain: WH2 for biotransformation. The drug concentrations were measured before and after a 12-h incubation by liquid-chromatography-coupled mass spectrometry (LC–MS); details: bacteroides sp. wh2, 12 h, 2 µM
[3] = The drug is tested on Dorea formicigenerans strain: ATCC27755 for biotransformation. The drug concentrations were measured before and after a 12-h incubation by liquid-chromatography-coupled mass spectrometry (LC–MS); details: 2 µM
[4] = The drug is tested on Clostridium asparagiforme strain: DSM15981 for biotransformation. The drug concentrations were measured before and after a 12-h incubation by liquid-chromatography-coupled mass spectrometry (LC–MS); format: ADME; design: dose 2 uM, timepoint 0 vs 12 hours; details: enterocloster asparagiformis, 2 µM
[5] = bifidobacterium adolescentis, 12 h, 2 µM
Description: The drug is tested on Bifidobacterium adolescentis strain: ATCC 15703 for biotransformation. The drug concentrations were measured before and after a 12-h incubation by liquid-chromatography-coupled mass spectrometry (LC–MS)

[6] = akkermansia muciniphila, 12 h, 2 µM
Description: The drug is tested on Akkermansia muciniphila strain: ATCC BAA-835 for biotransformation. The drug concentrations were measured before and after a 12-h incubation by liquid-chromatography-coupled mass spectrometry (LC–MS)

[7] = The drug is tested on Clostridium sp. strain: fecal isolate for biotransformation. The drug concentrations were measured before and after a 12-h incubation by liquid-chromatography-coupled mass spectrometry (LC–MS); details: 2 µM
[8] = bacteroides eggerthii, 12 h, 2 µM
Description: The drug is tested on Bacteroides eggerthii strain: DSM20697 for biotransformation. The drug concentrations were measured before and after a 12-h incubation by liquid-chromatography-coupled mass spectrometry (LC–MS)

[9] = The drug is tested on Odoribacter splanchnicus strain: fecal isolate for biotransformation. The drug concentrations were measured before and after a 12-h incubation by liquid-chromatography-coupled mass spectrometry (LC–MS); details: 2 µM
[10] = The drug is tested on Bacteroides fragilis strain: HMW610 for biotransformation. The drug concentrations were measured before and after a 12-h incubation by liquid-chromatography-coupled mass spectrometry (LC–MS); details: 2 µM
[11] = The drug is tested on Bacteroides coprophilus strain: DSM18228 for biotransformation. The drug concentrations were measured before and after a 12-h incubation by liquid-chromatography-coupled mass spectrometry (LC–MS); details: 2 µM
[12] = roseburia intestinalis, 12 h, 2 µM
Description: The drug is tested on Roseburia intestinalis strain: L1-82 for biotransformation. The drug concentrations were measured before and after a 12-h incubation by liquid-chromatography-coupled mass spectrometry (LC–MS)

[13] = bacteroides fragilis, 12 h, 2 µM; remark: listed apart in the source
Description: The drug is tested on Bacteroides fragilis strain: NCTC 9343 for biotransformation. The drug concentrations were measured before and after a 12-h incubation by liquid-chromatography-coupled mass spectrometry (LC–MS)

[14] = The drug is tested on Eubacterium hallii strain: DSM3353 for biotransformation. The drug concentrations were measured before and after a 12-h incubation by liquid-chromatography-coupled mass spectrometry (LC–MS); details: anaerobutyricum hallii, 2 µM
[15] = The drug is tested on Clostridium sporogenes strain: ATCC15579 for biotransformation. The drug concentrations were measured before and after a 12-h incubation by liquid-chromatography-coupled mass spectrometry (LC–MS); details: 2 µM
[16] = The drug is tested on Bacteroides ovatus strain: ATCC8483 for biotransformation. The drug concentrations were measured before and after a 12-h incubation by liquid-chromatography-coupled mass spectrometry (LC–MS); details: 2 µM
[17] = The drug is tested on Anaerococcus hydrogenalis strain: DSM7454 for biotransformation. The drug concentrations were measured before and after a 12-h incubation by liquid-chromatography-coupled mass spectrometry (LC–MS); details: 2 µM
[18] = segatella copri, 12 h, 2 µM
Description: The drug is tested on Prevotella copri strain: DSM18205 for biotransformation. The drug concentrations were measured before and after a 12-h incubation by liquid-chromatography-coupled mass spectrometry (LC–MS)

[19] = bacteroides thetaiotaomicron, 12 h, 2 µM
Description: The drug is tested on Bacteroides thetaiotaomicron strain: 3731 for biotransformation. The drug concentrations were measured before and after a 12-h incubation by liquid-chromatography-coupled mass spectrometry (LC–MS)

[20] = The drug is tested on Bacteroides finegoldii strain: DSM17565 for biotransformation. The drug concentrations were measured before and after a 12-h incubation by liquid-chromatography-coupled mass spectrometry (LC–MS); details: 2 µM

Compound	Bacterial Biotransformation [1]	Bacterial Biotransformation [2]	Bacterial Biotransformation [3]	Bacterial Biotransformation [4]	Bacterial Biotransformation [5]	Bacterial Biotransformation [6]	Bacterial Biotransformation [7]	Bacterial Biotransformation [8]	Bacterial Biotransformation [9]	Bacterial Biotransformation [10]	Bacterial Biotransformation [11]	Bacterial Biotransformation [12]	Bacterial Biotransformation [13]	Bacterial Biotransformation [14]	Bacterial Biotransformation [15]	Bacterial Biotransformation [16]	Bacterial Biotransformation [17]	Bacterial Biotransformation [18]	Bacterial Biotransformation [19]	Bacterial Biotransformation [20]
CN(C)CC(c1ccc(O)cc1)C1(O)CCCCC1.O=C(O)CCC(=O)O (stereo not given) [DESVENLAFAXINE SUCCINATE]	Compound NOT metabolized	Compound NOT metabolized	Compound NOT metabolized	Compound NOT metabolized	Compound NOT metabolized	Compound NOT metabolized	Compound NOT metabolized	Compound NOT metabolized	Compound NOT metabolized	Compound NOT metabolized	Compound NOT metabolized	Compound NOT metabolized	Compound NOT metabolized	Compound NOT metabolized	Compound NOT metabolized	Compound NOT metabolized	Compound NOT metabolized	Compound NOT metabolized	Compound NOT metabolized	Compound NOT metabolized
CC(=O)OCC(=O)[C@@]1(OC(C)=O)[C@@H](C)C[C@H]2[C@@H]3C[C@H](F)C4=CC(=O)C=C[C@]4(C)[C@@]3(F)[C@@H](O)C[C@@]21C [DIFLORASONE DIACETATE]	Compound metabolized	Compound metabolized	Compound NOT metabolized	Compound metabolized	Compound metabolized	Compound metabolized	Compound metabolized	Compound metabolized	Compound metabolized	Compound metabolized	Compound NOT metabolized	Compound metabolized	Compound metabolized	Compound NOT metabolized	Compound metabolized	Compound metabolized	Compound NOT metabolized	Compound metabolized	Compound metabolized	Compound metabolized
COc1ccc([C@@H]2Sc3ccccc3N(CCN(C)C)C(=O)[C@@H]2OC(C)=O)cc1 [DILTIAZEM]	Compound NOT metabolized	Compound metabolized	Compound metabolized	Compound NOT metabolized	Compound NOT metabolized	Compound metabolized	Compound metabolized	Compound NOT metabolized	Compound NOT metabolized	Compound NOT metabolized	Compound metabolized	Compound NOT metabolized	Compound metabolized	Compound metabolized	Compound NOT metabolized	Compound metabolized	Compound NOT metabolized	Compound NOT metabolized	Compound metabolized	Compound metabolized
O=c1[nH]c2ccccc2n1CCCN1CCC(n2c(=O)[nH]c3cc(Cl)ccc32)CC1 [DOMPERIDONE]	Compound NOT metabolized	Compound NOT metabolized	Compound NOT metabolized	Compound NOT metabolized	Compound NOT metabolized	Compound NOT metabolized	Compound NOT metabolized	Compound NOT metabolized	Compound NOT metabolized	Compound NOT metabolized	Compound NOT metabolized	Compound NOT metabolized	Compound NOT metabolized	Compound NOT metabolized	Compound NOT metabolized	Compound NOT metabolized	Compound NOT metabolized	Compound NOT metabolized	Compound NOT metabolized	Compound NOT metabolized
Cc1ccc(S(=O)(=O)NC(=O)NN2CC3CCCC3C2)cc1 (stereo not given) [GLICLAZIDE]	Compound NOT metabolized	Compound NOT metabolized	Compound NOT metabolized	Compound NOT metabolized	Compound NOT metabolized	Compound NOT metabolized	Compound NOT metabolized	Compound NOT metabolized	Compound NOT metabolized	Compound metabolized	Compound NOT metabolized	Compound NOT metabolized	Compound NOT metabolized	Compound NOT metabolized	Compound NOT metabolized	Compound NOT metabolized	Compound NOT metabolized	Compound NOT metabolized	Compound metabolized	Compound NOT metabolized
COC1=C(OC)C(=O)C(CCCCCCCCCCO)=C(C)C1=O [IDEBENONE]	Compound metabolized	Compound NOT metabolized	Compound NOT metabolized	Compound NOT metabolized	Compound NOT metabolized	Compound NOT metabolized	Compound NOT metabolized	Compound NOT metabolized	Compound metabolized	Compound metabolized	Compound NOT metabolized	Compound NOT metabolized	Compound metabolized	Compound metabolized	Compound metabolized	Compound NOT metabolized	Compound NOT metabolized	Compound NOT metabolized	Compound NOT metabolized	Compound NOT metabolized
CCC(C)n1ncn(-c2ccc(N3CCN(c4ccc(OCC5COC(Cn6cncn6)(c6ccc(Cl)cc6Cl)O5)cc4)CC3)cc2)c1=O (stereo not given) [ITRACONAZOLE]	Compound NOT metabolized	Compound NOT metabolized	Compound NOT metabolized	Compound NOT metabolized	Compound NOT metabolized	Compound NOT metabolized	Compound metabolized	Compound NOT metabolized	Compound NOT metabolized	Compound NOT metabolized	Compound NOT metabolized	Compound NOT metabolized	Compound NOT metabolized	Compound NOT metabolized	Compound NOT metabolized	Compound NOT metabolized	Compound NOT metabolized	Compound NOT metabolized	Compound NOT metabolized	Compound NOT metabolized
CN1CCN(C2=Nc3ccccc3Oc3ccc(Cl)cc32)CC1.O=C(O)CCC(=O)O [LOXAPINE SUCCINATE]	Compound NOT metabolized	Compound NOT metabolized	Compound NOT metabolized	Compound NOT metabolized	Compound NOT metabolized	Compound NOT metabolized	Compound NOT metabolized	Compound NOT metabolized	Compound NOT metabolized	Compound NOT metabolized	Compound NOT metabolized	Compound NOT metabolized	Compound NOT metabolized	Compound NOT metabolized	Compound NOT metabolized	Compound NOT metabolized	Compound NOT metabolized	Compound NOT metabolized	Compound NOT metabolized	Compound NOT metabolized
